From patent US9988366B2, “Pesticidally active heterocyclic derivatives with sulphur containing substituents” (Syngenta Participations AG, priority 2014, dated 2018)

Legend:
Type in all cases: in vivo
[1] = test system: Diabrotica balteata (corn root worm); experiment: Example B4: Diabrotica balteata larvae L2 on maize sprouts, feeding/contact, preventative; details: 120 h, 5 days, read-out: activity (larval mortality and growth regulation)
Method: Example B4: Activity Against Diabrotica balteata (Corn Root Worm)
(Larvae L2 on Maize Sprouts, Feeding/Contact, Preventative)
Maize sprouts, placed on an agar layer in 24 well micro titer plates were treated with test solutions by spraying. After drying, the MTPs were infested with L2 larvae (6-10 per well). After an incubation period of 5 days, samples were checked for larval mortality and growth regulation.

[2] = test system: Spodoptera littoralis (Egyptian cotton leaf worm); experiment: Example B1: Spodoptera littoralis larvicide, feeding/residual contact activity, preventive (cotton leaf discs); details: foliar, 72 h, L1 larvae on sprayed cotton leaf discs, 3 days after treatment, read-out: effect in at least one of the three categories (mortality, anti-feedancy, or growth inhibition)
From the text: Example B1: Activity Against Spodoptera littoralis (Egyptian Cotton Leaf Worm)
(§1) (Larvicide, Feeding/Residual Contact Activity, Preventive)
Cotton leaf discs were placed on agar in a 24-well microtiter plate and sprayed with test solutions. After drying, the leaf discs were infested with five L1 larvae. The samples were checked for mortality, repellent effect, feeding behaviour, and growth regulation 3 days after treatment (DAT). Control of Spodoptera littoralis by a test sample is when at least one of mortality, anti-feedant effect, and growth inhibition is higher than an untreated sample.

[3] = test system: Myzus persicae (green peach aphid); experiment: Example B6: Myzus persicae feeding activity sachet test, mixed population; details: 120 h, sucrose solution, 5 days after infestation
From the text: Example B6: Activity Against Myzus persicae (Green Peach Aphid)
(Feeding Activity Sachet Test), Mixed Population
Test compounds were applied by pipette into 24 well plates and mixed with Sucrose solution. The plates were closed with a stretched Parafilm. A plastic stencil with 24 holes is placed onto the plate and infested pea seedlings were placed directly on the Parafilm. The infested plate is closed with a gel blotting paper and another plastic stencil and then turned upside down. 5 days after infestation the samples were checked on mortality. Application rate: 12.5 ppm.

[4] = test system: Plutella xylostella (diamond back moth); experiment: Example B3: Plutella xylostella larvicide, feeding/residual contact activity, preventive (artificial diet); details: 120 h, L2 larvae on artificial diet, 5 days, read-out: activity (larval mortality, antifeedant and growth regulation)
Method: Example B3: Activity Against Plutella xylostella (Diamond Back Moth)
as §1
24-well microtiter plate (MTP) with artificial diet was treated with test solutions by pipetting. After drying, the MTPs were infested with L2 larvae (10-15 per well). After an incubation period of 5 days, samples were checked for larval mortality, antifeedant and growth regulation.

[5] = test system: Myzus persicae (green peach aphid); experiment: Example B5: Myzus persicae feeding/residual contact activity, preventive, mixed population (sunflower leaf discs); details: foliar, 144 h, mixed population on sunflower leaf discs, 6 DAT
Method: Example B5: Activity Against Myzus persicae (Green Peach Aphid)
(Feeding/Residual Contact Activity, Preventive), Mixed Population
Sunflower leaf discs were placed on agar in a 24-well microtiter plate and sprayed with test solutions. After drying, the leaf discs were infested with an aphid population of mixed ages. After an incubation period of 6 DAT, samples were checked for mortality and special effects (e.g. phytotoxicity).

[6] = test system: Euschistus heros (neotropical brown stink bug); experiment: Example B8: Euschistus heros, soybean leaf spray test; details: 120 h, N-2 nymphs on soybean leaf, 5 days after infestation
Method: Example B8: Activity Against Euschistus heros (Neotropical Brown Stink Bug)
Soybean leaf on agar in 24-well microtiter plates were sprayed with aqueous test solutions prepared from 10,000 ppm DMSO stock solutions. After drying the leaf were infested with N-2 nymphs. The samples were assessed for mortality 5 days after infestation.

Row | SMILES | mortality at 400 ppm [1] [%] | percent control (mortality, anti-feedancy or growth inhibition) at 400 ppm [2] [%] | mortality at 12.5 ppm [3] [%] | mortality at 400 ppm [4] [%] | mortality at 400 ppm [5] [%] | mortality at 400 ppm [6] [%]
1 | CCS(=O)(=O)c1cc(C(F)(F)F)cnc1-c1ncc(-c2cc(F)cc(F)c2)n1C [Compound P36] | > 80 | – | – | – | – | –
2 | CCS(=O)(=O)c1cc(C(F)(F)F)cnc1-c1ncc(-c2ccc(C#N)cc2)n1C [Compound P45] | > 80 | ≥ 80 | ≥ 80 | > 80 | – | –
3 | CCS(=O)(=O)c1cc(C(F)(F)F)cnc1-c1ncc(-c2cc(C(F)(F)F)ccc2F)n1C [Compound P20] | > 80 | – | – | – | – | –
4 | CCS(=O)(=O)c1cc(C(F)(F)F)cnc1-c1ncc(-c2ccnc(Cl)c2)n1C [Compound P28] | > 80 | ≥ 80 | – | > 80 | – | –
5 | CCS(=O)(=O)c1cc(C(F)(F)F)cnc1-c1ncc(-c2ccc(F)c(F)c2)n1C [Compound P43] | > 80 | ≥ 80 | ≥ 80 | > 80 | – | –
6 | CCS(=O)(=O)c1cc(C(F)(F)F)cnc1-c1nc(Cl)c(-c2ccc(C(F)(F)F)cc2)n1C [Compound P7] | > 80 | ≥ 80 | – | – | – | –
7 | CCS(=O)(=O)c1cc(C(F)(F)F)cnc1-c1ncc(-c2ccc(C(F)(F)F)c(C(F)(F)F)c2)n1C [Compound P49] | > 80 | ≥ 80 | – | > 80 | – | –
8 | CCS(=O)(=O)c1cc(C(F)(F)F)cnc1-c1ncc(-c2cccc(OC(F)(F)F)c2)n1C [Compound P22] | > 80 | ≥ 80 | – | – | – | –
9 | CCS(=O)(=O)c1cc(C(F)(F)F)cnc1-c1ncc(-c2ccc(C#N)nc2)n1C [Compound P47] | > 80 | ≥ 80 | – | – | – | –
10 | CCS(=O)(=O)c1cc(C(F)(F)F)cnc1-c1ncc(-c2ccc(C(F)(C(F)(F)F)C(F)(F)F)cc2)n1C [Compound P24] | > 80 | ≥ 80 | – | > 80 | – | –
11 | CCS(=O)(=O)c1cc(C(F)(F)F)cnc1-c1ncc(-c2cc(C#N)ccc2Cl)n1C [Compound P32] | > 80 | – | – | – | – | –
12 | CCn1c(-c2ccc(C(F)(F)F)nc2)cnc1-c1ncc(C(F)(F)F)cc1S(=O)(=O)CC [Compound P11] | > 80 | ≥ 80 | – | > 80 | > 80 | –
13 | CCS(=O)(=O)c1cc(C(F)(F)F)cnc1-c1ncc(-c2cccc(C(F)(F)F)n2)n1C [Compound P8] | – | ≥ 80 | – | – | > 80 | > 80
14 | CCS(=O)(=O)c1cc(C(F)(F)F)cnc1-c1ncc(-c2cccc(SC(F)(F)F)c2)n1C [Compound P13] | – | ≥ 80 | – | – | – | –
15 | CCS(=O)(=O)c1cc(C(F)(F)F)cnc1-c1ncc(-c2cncc(C(F)(F)F)c2)n1C [Compound P5] | – | ≥ 80 | – | – | > 80 | –
16 | CCS(=O)(=O)c1cc(C(F)(F)F)cnc1-c1ncc(-c2cccc(C#N)c2)n1C [Compound P41] | > 80 | ≥ 80 | ≥ 80 | – | – | –
17 | CCS(=O)(=O)c1cc(C(F)(F)F)cnc1-c1ncc(-c2cc(F)c(F)c(F)c2)n1C [Compound P44] | > 80 | ≥ 80 | – | > 80 | – | –
18 | CCS(=O)(=O)c1cc(C(F)(F)F)cnc1-c1ncc(-c2cc(C(F)(F)F)cc(Cl)n2)n1C [Compound P51] | > 80 | ≥ 80 | – | > 80 | – | –

Row | SMILES | mortality at 400 ppm [1] [%] | percent control (mortality, anti-feedancy or growth inhibition) at 400 ppm [2] [%] | mortality at 12.5 ppm [3] [%] | mortality at 400 ppm [4] [%] | mortality at 400 ppm [5] [%] | mortality at 400 ppm [6] [%]
19 | CCS(=O)(=O)c1cc(C(F)(F)F)cnc1-c1ncc(-c2ccc(OC(F)(F)F)cc2)n1C [Compound P40] | > 80 | ≥ 80 | ≥ 80 | > 80 | – | > 80
20 | CCS(=O)(=O)c1cc(C(F)(F)F)cnc1-c1ncc(-c2ccc3c(c2)OC(F)(F)O3)n1C [Compound P48] | > 80 | ≥ 80 | – | > 80 | – | –
21 | CCS(=O)(=O)c1cc(C(F)(F)F)cnc1-c1ncc(-c2cccc(C#N)n2)n1C [Compound P26] | > 80 | – | – | – | – | –
22 | CCS(=O)(=O)c1cc(C(F)(F)F)cnc1-c1ncc(-c2cccc(S(=O)(=O)C(F)(F)F)c2)n1C [Compound P14] | – | ≥ 80 | – | – | > 80 | –
23 | CCS(=O)(=O)c1cc(C(F)(F)F)cnc1-c1ncc(-c2ccc(Cl)cc2)n1C [Compound P18] | > 80 | ≥ 80 | – | > 80 | – | –
24 | CCS(=O)(=O)c1cc(C(F)(F)F)cnc1-c1ncc(-c2ccc(C(F)(F)F)cc2Cl)n1C [Compound P30] | > 80 | ≥ 80 | – | – | – | –
25 | CCS(=O)(=O)c1cc(C(F)(F)F)cnc1-c1ncc(-c2ccc(F)c(Cl)c2)n1C [Compound P53] | > 80 | ≥ 80 | – | > 80 | – | –
26 | CCS(=O)(=O)c1cc(C(F)(F)F)cnc1-c1cnc(-c2cc(Cl)cc(Cl)c2)n1C [Compound P17] | > 80 | ≥ 80 | – | > 80 | – | –
27 | CCS(=O)(=O)c1cc(C(F)(F)F)cnc1-c1nc(C)c(-c2ccc(C(F)(F)F)cc2)n1C [Compound P16] | > 80 | – | – | – | – | –
28 | CCS(=O)(=O)c1cc(C(F)(F)F)cnc1-c1ncc(-c2ccc(Cl)c(C(F)(F)F)c2)n1C [Compound P38] | > 80 | ≥ 80 | ≥ 80 | > 80 | – | > 80
29 | CCS(=O)(=O)c1cc(C(F)(F)F)cnc1-c1ncc(-c2cccc(Cl)c2)n1C [Compound P34] | > 80 | – | – | – | – | –
30 | CCS(=O)(=O)c1cc(C(F)(F)F)cnc1-c1ncc(-c2ccc(Cl)nc2)n1C [Compound P23] | > 80 | ≥ 80 | ≥ 80 | > 80 | – | –
31 | CCS(=O)(=O)c1cc(C(F)(F)F)cnc1-c1ncc(-c2cccc(C(F)(F)F)c2)n1C [Compound P1, 3-ethylsulfonyl-2-[1-methyl-5-[3-(trifluoromethyl)phenyl]imidazol-2-yl]-5-(trifluoromethyl)pyridine] | > 80 | ≥ 80 | ≥ 80 | – | > 80 | –
32 | CCS(=O)(=O)c1cc(C(F)(F)F)cnc1-c1ncc(-c2ccc(Cl)c(Cl)c2F)n1C [Compound P33] | > 80 | ≥ 80 | – | > 80 | – | –
33 | CCS(=O)(=O)c1cc(C(F)(F)F)cnc1-c1ncc(-c2ccc(Cl)c(Cl)c2)n1C [Compound P35] | > 80 | ≥ 80 | – | > 80 | – | > 80
34 | CCS(=O)(=O)c1cc(C(F)(F)F)cnc1-c1ncc(-c2cc(C(F)(F)F)cc(C(F)(F)F)c2)n1C [Compound P52] | > 80 | ≥ 80 | – | > 80 | – | –
35 | CCS(=O)(=O)c1cc(C(F)(F)F)cnc1-c1ncc(-c2cccc(C(F)(F)Cl)c2)n1C [Compound P29] | > 80 | ≥ 80 | – | > 80 | – | > 80
36 | CCS(=O)(=O)c1cc(C(F)(F)F)cnc1-c1ncc(-c2ccc(Cl)c(F)c2)n1C [Compound P25] | > 80 | ≥ 80 | ≥ 80 | > 80 | – | > 80
